Results as given in publication PMC4894417, “Quantitative High-Throughput Profiling of Environmental Chemicals and Drugs that Modulate Farnesoid X Receptor” (Scientific Reports, 2014).
Like-named read-outs stand apart in the source and are kept apart here.

Assays:
[1] = test system: FXR-UAS-bla HEK293T cells; assay: Cell viability assay (CellTiter Glo) in the same well as FXR-bla; conditions: for IC50: read-out: Cytotoxicity IC50
human FXR [2] = molecular target: T1, human FXR (Homo sapiens, UniProt Q96RI1); assay: FXR-bla reporter gene assay, agonist mode (qHTS); conditions: for FXR agonist EC50: Table S3, FXR-active drugs; for FXR agonist mode EC50 / EC50: Table S1, primary screening; for FXR agonist activity: FXR-bla assay; for EC50: read-out: FXR agonist mode EC50
T1 sequence (Q96RI1 with tags, fused parts or gaps limits assumed): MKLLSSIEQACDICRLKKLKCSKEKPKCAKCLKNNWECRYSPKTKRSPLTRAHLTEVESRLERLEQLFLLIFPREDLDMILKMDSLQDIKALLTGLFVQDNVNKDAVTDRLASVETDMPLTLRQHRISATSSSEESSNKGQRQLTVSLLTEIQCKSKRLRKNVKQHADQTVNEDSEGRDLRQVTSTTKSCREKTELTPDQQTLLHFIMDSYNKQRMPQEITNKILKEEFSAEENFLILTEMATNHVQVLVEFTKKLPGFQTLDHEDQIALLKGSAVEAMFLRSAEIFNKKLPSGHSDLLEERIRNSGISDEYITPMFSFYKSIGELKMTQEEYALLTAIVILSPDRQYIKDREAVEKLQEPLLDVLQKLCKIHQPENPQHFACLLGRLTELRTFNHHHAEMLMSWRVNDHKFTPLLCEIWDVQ

human FXR [3] = molecular target: T1, human FXR; assay: FXR-bla reporter gene assay, antagonist mode (CDCA-induced transactivation); conditions: for FXR antagonist activity: FXR-bla assay
[4] = Table S1, primary screening, 50 µM CDCA

C#C[C@]1(O)CC[C@H]2[C@@H]3CCc4cc(O)ccc4[C@H]3CC[C@@]21C [Ethinylestradiol]
Cytotoxicity Efficacy ([1]; Table S1, primary screening): 36 ± 47% | Cytotoxicity Efficacy ([1]; Table S3): 36 ± 47%

CC[C@]1(O)CC[C@H]2[C@@H]3CCC4=CCCC[C@@H]4[C@H]3CC[C@@]21C [Ethylestrenol]
FXR agonist EC50 (human FXR [2]): Inactive | FXR antagonist Efficacy (human FXR [3]): 66 ± 11%

CN1CC[C@H](c2c(O)cc(O)c3c(=O)cc(-c4ccccc4Cl)oc23)[C@H](O)C1 [Flavopiridol]
Cell viability IC50 ([1]; Table 1, mean ± SD of 3 experiments): Inactive

CC(C)[C@H](Nc1ccc(C(F)(F)F)cc1Cl)C(=O)OC(C#N)c1cccc(Oc2ccccc2)c1 (stereo partly drawn) [Fluvalinate]
FXR agonist mode EC50 (human FXR [2]): Inactive | FXR antagonist mode Efficacy (human FXR [3]): 53 ± 3 | IC50 (human FXR [3]; FXR antagonist mode IC50): 30.3 ± 12 µM | Cytotoxicity IC50 ([1]; Table S1, primary screening): Inactive

C[C@]12CC[C@@H]3c4ccc(O)cc4C[C@@H](CCCCCCCCC[S+]([O-])CCCC(F)(F)C(F)(F)F)[C@H]3[C@@H]1CC[C@@H]2O (stereo partly drawn) [Fulvestrant]
Cytotoxicity IC50 ([1]; Table S1, primary screening): Inactive

CC(C)c1onc(-c2c(Cl)cccc2Cl)c1COc1ccc(/C=C/c2cccc(C(=O)O)c2)c(Cl)c1 [GW4064]
Cytotoxicity IC50 ([1]; Table S1, primary screening): Inactive

CC[C@H](C)[C@H]1O[C@]2(CC[C@@H]1C)C[C@@H]1C[C@@H](C/C=C(\C)[C@@H](O[C@H]3C[C@H](OC)[C@@H](O[C@H]4C[C@H](OC)[C@@H](O)[C@H](C)O4)[C@H](C)O3)[C@@H](C)/C=C/C=C3\CO[C@@H]4[C@H](O)C(C)=C[C@@H](C(=O)O1)[C@]34O)O2 [Ivermectin B1a]
Cytotoxicity Efficacy ([1]; Table S1, primary screening): 124 ± 6% | Cytotoxicity Efficacy ([1]; Table S3): 124 ± 6% | IC50 ([1]; Table S1, primary screening): 14.1 ± 2.63 µM

COC(=O)C1=C(C)NC(C)=C(C(=O)OC(C)(C)CN(C)CCC(c2ccccc2)c2ccccc2)C1c1cccc([N+](=O)[O-])c1 (stereo not drawn) [Lercanidipine]
FXR agonist mode EC50 (human FXR [2]): Inactive | IC50 (human FXR [3]): 15.5 ± 9.59 µM | FXR antagonist Efficacy (human FXR [3]; Table S3, 50 µM CDCA): -71 ± 10% | Cytotoxicity IC50 ([1]; Table S1, primary screening): Inactive

CO[C@@]12[C@H](COC(N)=O)C3=C(C(=O)C(C)=C(N)C3=O)N1C[C@@H]1N[C@@H]12 [Mitomycin C]
FXR agonist EC50 (human FXR [2]): Inactive | FXR antagonist Efficacy (human FXR [3]; Table S3, 50 µM CDCA): 62 ± 4%

CO/N=C1\C[C@]2(C[C@@H]3C[C@@H](C/C=C(\C)C[C@@H](C)/C=C/C=C4\CO[C@@H]5[C@H](O)C(C)=C[C@@H](C(=O)O3)[C@]45O)O2)O[C@H](/C(C)=C/C(C)C)[C@H]1C [Moxidectin, moxidectin]
FXR agonist activity (human FXR [2]): did not show agonist activity

COc1cccc2c1C(=O)c1c(O)c3c(c(O)c1C2=O)C[C@@](O)(C(=O)CO)C[C@@H]3O[C@H]1C[C@H](N2CCO[C@H](OC)C2)[C@H](O)[C@H](C)O1 [Nemorubicin]
Cell viability IC50 [1]: Inactive

COC(=O)C1=C(C)NC(C)=C(C(=O)OC)C1c1ccccc1[N+](=O)[O-] [Nifedipine]
FXR agonist mode EC50 (human FXR [2]): Inactive | FXR antagonist activity (human FXR [3]; CDCA-induced): antagonists | IC50 (human FXR [3]; IC50, FXR-bla antagonist mode, primary screening, CDCA-induced): 34 µM | FXR antagonist mode Efficacy (human FXR [3]; [4]): 66 ± 46%

COC(=O)C1=C(C)NC(C)=C(C(=O)OCC(C)C)C1c1ccccc1[N+](=O)[O-] (stereo not drawn) [Nisoldipine]
FXR agonist mode EC50 (human FXR [2]): Inactive | IC50 (human FXR [3]): 32.6 ± 20.2 µM | FXR antagonist activity (human FXR [3]; CDCA-induced): antagonists | FXR antagonist mode Efficacy (human FXR [3]; [4]): 73 ± 29% | Cytotoxicity IC50 ([1]; Table S1, primary screening): Inactive

CCCCc1ccc2[nH]c(NC(=O)OC)nc2c1 [Parbendazole]
FXR agonist mode EC50 (human FXR [2]): Inactive | FXR antagonist mode Efficacy (human FXR [3]): 43 ± 3% | IC50 (human FXR [3]; FXR antagonist mode IC50): 0.16 ± 0.14 µM | Cytotoxicity IC50 ([1]; Table S1, primary screening): Inactive

CC(C)=CC1C(C(=O)OCc2cccc(Oc3ccccc3)c2)C1(C)C (stereo not drawn) [Phenothrin]
FXR agonist mode EC50 (human FXR [2]): Inactive | FXR antagonist mode Efficacy (human FXR [3]): 27 ± 7 | IC50 (human FXR [3]): 25.4 ± 11.8 µM | Cytotoxicity IC50 ([1]; Table S1, primary screening): Inactive

CCC1=C[C@@H]2CN(C1)Cc1c([nH]c3ccccc13)[C@@](C(=O)OC)(c1cc3c(cc1OC)N(C)[C@H]1[C@@](O)(C(=O)OC)[C@H](OC(C)=O)[C@]4(CC)C=CCN5CC[C@]31[C@@H]54)C2 [Vinorelbine]
Cytotoxicity Efficacy ([1]; Table S3): 41 ± 5%

AM580
FXR agonist mode Efficacy (human FXR [2]): 68 ± 37 | FXR agonist activity (human FXR [2]): selectively induced transactivation of FXR | EC50 (human FXR [2]): 45.4 ± 3.07 µM | FXR antagonist mode IC50 (human FXR [3]): Inactive | Cytotoxicity IC50 ([1]; Table S1, primary screening): Inactive

Emamectin
FXR agonist mode Efficacy (human FXR [2]): 56 ± 26% | EC50 (human FXR [2]): 24.6 ± 8.97 µM | FXR antagonist mode Efficacy (human FXR [3]): 64 ± 19% | IC50 (human FXR [3]; read-out: FXR antagonist mode IC50): 5.81 ± 2.68 µM | Cytotoxicity Efficacy ([1]; Table S1, primary screening): 116 ± 14% | IC50 ([1]; Table S1, primary screening): 7.54 ± 1.29 µM
